# Numbers after ± are expanded uncertainties.
# What was measured:
# [1] = 101.33 kPa, Liquid; for viscosity: Capillary tube (Ostwald / Ubbelohde) method; for mass density: Vibrating tube method
# [2] = refractive index (Na D-line) (dimensionless); conditions: 101.33 kPa, Liquid, Standard Abbe refractometry
SMILES,viscosity ([1]; 303.15 K),mass density ([1]; 303.15 K),viscosity ([1]; 308.15 K),mass density ([1]; 308.15 K),viscosity ([1]; 313.15 K),mass density ([1]; 313.15 K),refractive index ([2]; 298.15 K),refractive index ([2]; 303.15 K),refractive index ([2]; 308.15 K),refractive index ([2]; 313.15 K)
O=C1CCCC1 [cyclopentanone],0.999 ± 0.013 mPa·s,938.5 ± 0.4 kg/m3,0.927 ± 0.012 mPa·s,933.9 ± 0.4 kg/m3,0.865 ± 0.011 mPa·s,929 ± 0.4 kg/m3,1.4352 ± 0.0004,1.4335 ± 0.0004,1.431 ± 0.0004,1.429 ± 0.0004
CC(=O)c1ccccc1 [acetophenone],1.518 ± 0.02 mPa·s,1019.9 ± 0.3 kg/m3,1.378 ± 0.018 mPa·s,1016.9 ± 0.3 kg/m3,1.291 ± 0.016 mPa·s,1013.5 ± 0.3 kg/m3,–,1.5294 ± 0.0004,1.527 ± 0.0004,1.525 ± 0.0004
O=C1CCCCC1 [cyclohexanone],1.816 ± 0.023 mPa·s,937.7 ± 0.4 kg/m3,1.657 ± 0.021 mPa·s,932.8 ± 0.4 kg/m3,1.542 ± 0.02 mPa·s,928.2 ± 0.4 kg/m3,–,1.4465 ± 0.0004,1.444 ± 0.0004,1.442 ± 0.0004

# The next lines start with the values.
viscosity ([1]; 303.15 K),mass density ([1]; 303.15 K),viscosity ([1]; 308.15 K),mass density ([1]; 308.15 K),viscosity ([1]; 313.15 K),mass density ([1]; 313.15 K),refractive index ([2]; 298.15 K),refractive index ([2]; 303.15 K),refractive index ([2]; 308.15 K),refractive index ([2]; 313.15 K),SMILES
0.429 ± 0.006 mPa·s,805.7 ± 0.3 kg/m3,0.397 ± 0.005 mPa·s,801.7 ± 0.3 kg/m3,0.388 ± 0.005 mPa·s,797.7 ± 0.4 kg/m3,–,1.3879 ± 0.0004,1.3857 ± 0.0004,1.3835 ± 0.0004,CCC(=O)CC [pentan-3-one]
1.623 ± 0.021 mPa·s,1066.1 ± 0.4 kg/m3,1.48 ± 0.019 mPa·s,1060.5 ± 0.4 kg/m3,1.367 ± 0.018 mPa·s,1054.5 ± 0.4 kg/m3,–,1.4063 ± 0.0004,1.404 ± 0.0004,1.402 ± 0.0004,CCOC(=O)C(=O)OCC [diethyl ethanedioate]
